According to article PMC10180515, “Biological Evaluation of Triorganotin Derivatives as Potential Anticancer Agents” (Molecules, 2023):
Where “and” joins values, the source holds several entries; their conditions need not be identical. Identical values can stand only once. Like-named read-outs stand apart in the source and are kept apart here.

Key:
PBMCs = test: MTT assay of metabolic activity, PBMCs; type: cell-based, human
MCF-10A cells [1] = test: MTT assay of metabolic activity, MCF-10A; type: cell-based, human
[2] = tested on: CAL-27 cells, MCF-10A cells, PBMCs, and U937 cells; settings: read-out: IC50 metabolic activity (MTT) in all tested cells; 24 h
U937 cells [3] = test: MTT assay of metabolic activity, U937; type: cell-based
[4] = phosphate buffer pH 7.4, 37 °C, nominal concentration 400 µM
Description: For the NMR studies, the compounds were dissolved in DMSO-d6 and a phosphate buffer (50 mM, 5% D2O, pH = 7.4) containing, as an internal standard, 2,2,4,4-tetradeuterumtrimethylsilylpropionic acid (TSP). The NMR experiments were performed in D2O at 25 °C and recorded with a Bruker Avance spectrometer operating at 700 MHz for ^1H, equipped with a 5 mm inverse TXI probe, z-axis gradients, and a Sample Xpress Lite autosampler. The ^1H-NMR spectra were recorded with a spectral window of 15 ppm, 16 k complex points, and a relaxation delay of 10 s for a total of 16 transients.

MCF-10A cells [5] = test: Trypan blue exclusion viability test, MCF-10A; type: cell-based, human; settings: 24 h
CAL-27 cells [6] = test: MTT assay of metabolic activity, CAL-27; type: cell-based, human
CAL-27 cells [7] = test: Trypan blue exclusion viability test, CAL-27; type: cell-based, human; settings: CAL-27, 24 h
U937 cells [8] = type: cell-based; settings: 18 h
CAL-27 cells [9] = test: Annexin-V/7-AAD double staining flow cytometry, CAL-27; type: cell-based, human; settings: CAL-27, 4 h; TBT-OCOCF3 20 µM, WMN 0.5 µM; mean ± SD
12 bp DNA duplex = test: NMR interaction with 12 bp DNA duplex; type: binding; settings: 0.2 mM duplex, 6 h incubation; cisplatin two equivalents, TBT-OCOCF3 two or five equivalents
Description: In order to investigate the mechanisms underlying the cytotoxicity exerted by TBT-OCOF3, a first approach was to verify whether they were based on a direct interaction with DNA, similar to what was described for metal derivatives such as cisplatin. To this purpose, we investigated if TBT-OCOCF3 could bind to DNA using NMR. For TBT-OCOCF3, the 1D and 2D spectra of 12 bp DNA were acquired in the presence or absence of the compound. As a positive control for the interaction, cisplatin was assayed, which forms adducts or inter- and intra-strand crosslinks resulting in interference in the replication machinery, G2/M cell arrest, and cell death by apoptosis or necrosis. A solution containing 0.2 mM of the duplex, whose sequences are indicated in Figure 3, was annealed directly in the NMR tube. The double-helix formation was confirmed by the appearance of low-field signals belonging to the T- and G-NH groups (Figure 3a, left panel). The DNA’s aromatic signals were assigned to the different types of ^1H nuclei using a combination of ^1H-NMR and ^1H-^1H TOCSY experiments (Figure S3 in the Supplementary Materials) and chemical shift values (Figure 3a, right panel).

MCF-10A cells [10] = settings: 2-NBDG, 1 h, 10 μM and 20 μM
CAL-27 cells [11] = settings: CAL-27, 2-NBDG, 1 h, 10 μM and 20 μM
[12] = 24 h, ± SD, three experiments in triplicate
[13] = 20–80 μM, even at the higher concentration tested

Structure (SMILES): CCC[CH2][Sn]([Cl])([CH2]CCC)[CH2]CCC [TBT-Cl, tributyltin chloride]
- IC50 (PBMCs): ≤ 1000 nM
- IC50 (MCF-10A cells [1]): 1.22 ± 0.41 µM
- IC50 [2]: ≤ 1000 nM and ~1000 nM
- IC50 (U937 cells [3]): 420 ± 300 nM
- Solubility [4]: 61 µM
- Inhibition of viability (MCF-10A cells [5]; all of the tested concentrations (1.25 to 20 μM)): ≥ 90%
- IC50 (CAL-27 cells [6]): 0.91 ± 0.53 µM
- Effect on number of viable cells (CAL-27 cells [7]; all of the concentrations tested (1.25 to 20 μM)): greatly decreased the number of viable cells

Structure (SMILES): COC[C@H]1OC(=O)c2coc3c2[C@@]1(C)C1=C(C3=O)[C@@H]2CCC(=O)[C@@]2(C)C[C@H]1OC(C)=O [WMN, wortmannin]
- Effect on rapamycin-induced autophagy (U937 cells [8]; U937, wortmannin 0.5 μM cotreatment with rapamycin 0.5 μM): significantly inhibited
- Anx+/7AAD+ cells (CAL-27 cells [9]): 0.78 ± 0.04%
- Anx+/7AAD- cells (CAL-27 cells [9]): 6.42 ± 2.45%
- Anx-/7AAD+ cells (CAL-27 cells [9]): 2.99 ± 0.02%
- Anx-/7AAD- cells (CAL-27 cells [9]): 89.8 ± 4.63%

Structure (SMILES): N.N.[Cl][Pt][Cl] [Cisplatin, cis-diaminedichloroplatinum (II)]
- IC50 (PBMCs; 24 h, ± SD, IL-2 stimulated PBMCs of healthy individuals): 52500 ± 5880 nM
- IC50 (MCF-10A cells [1]; [12]): 21.5 ± 0.04 µM
- IC50 (U937 cells [3]; [12]): 38100 ± 3230 nM
- Interaction with 12 bp DNA (change in NMR spectrum) (12 bp DNA duplex): showed evidence of the interaction
- Susceptibility of cells to treatment (viable cell number) (MCF-10A cells [5]; [13]): resistant
- IC50 (CAL-27 cells [6]; [12]): 139 ± 59.5 µM
- Susceptibility of cells to treatment (viable cell number) (CAL-27 cells [7]; [13]): resistant

Structure (SMILES): CCC[CH2][Sn]([CH2]CCC)([CH2]CCC)[O][Sn]([CH2]CCC)([CH2]CCC)[CH2]CCC [TBT-O, bis(tributyltin) oxide]
- IC50 (PBMCs): 2960 ± 1350 nM
- IC50 (MCF-10A cells [1]): 4.93 ± 2.33 µM
- IC50 (U937 cells [3]): 1820 ± 210 nM
- Solubility [4]: 42 µM
- Glucose uptake inhibition (MCF-10A cells [10]): significantly inhibited
- Glucose uptake inhibition (CAL-27 cells [11]): significantly inhibited
- Inhibition of viability (MCF-10A cells [5]; 5 µM): 90%
- Inhibition of viability (MCF-10A cells [5]; 10 µM and 20 µM): 100%
- IC50 (CAL-27 cells [6]): 13.2 µM
- Effect on trypan-blue-negative (viable) cells recovered (CAL-27 cells [7]; 10 µM and 20 µM): complete inhibition

Structure (SMILES): CO[C@H]1C[C@@H]2CC[C@@H](C)[C@@](O)(O2)C(=O)C(=O)N2CCCC[C@H]2C(=O)O[C@H]([C@H](C)C[C@@H]2CC[C@@H](O)[C@H](OC)C2)CC(=O)[C@H](C)/C=C(\C)[C@@H](O)[C@@H](OC)C(=O)[C@H](C)C[C@H](C)/C=C/C=C/C=C/1C [rapamycin]
- Autophagic-specific fluorescent green signal compared to control cells (U937 cells [8]; U937, 0.5 μM): significant increase
